{"source": "paper PMC11684667", "about": "(Molecular cell, 2023)", "key": {"CK1δ ΔC": {"system": "CK1δ ΔC", "assay": "NMR kinase assay monitoring priming phosphorylation at S662", "type": "biochemical, human", "details": "3-hr real-time NMR kinase assay, 0.2 mM 15N-FASP, 2.5 mM ATP, 1 µM CK1δ ΔC, 25°C, SOFAST HMQC"}, "[1]": {"molecular_target": "T1, Human CK1δ catalytic domain (residues 1–294) (human, UniProt P48730 1-294)", "T1 sequence": "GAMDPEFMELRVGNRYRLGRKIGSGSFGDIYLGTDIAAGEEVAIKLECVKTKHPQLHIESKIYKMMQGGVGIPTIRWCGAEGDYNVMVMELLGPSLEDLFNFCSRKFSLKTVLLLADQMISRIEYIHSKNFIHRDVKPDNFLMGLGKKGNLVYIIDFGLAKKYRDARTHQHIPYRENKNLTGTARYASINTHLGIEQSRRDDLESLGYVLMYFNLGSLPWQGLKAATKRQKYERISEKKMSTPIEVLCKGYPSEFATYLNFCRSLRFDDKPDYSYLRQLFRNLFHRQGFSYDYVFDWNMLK", "assay": "crystal structure"}}, "note": "Non-standard residues stand in square brackets, D forms with d. No end group written: not given here. pS = N[C@@H](COP(=O)(O)O)C(=O)O", "data": [{"molecule": "WT FASP: wild-type recombinant FASP peptide (residues 645–687) from human PER2 (GAMDPEFWRKKKTGVGTHLTSLALPGKAESVASLTSQCSYSSTIVHVGDKKPQPE; left off: His-NusA, N-terminal, cleaved)", "values": [{"measurement": "fraction of primed FASP (pS662), completion of priming", "setting": "CK1δ ΔC", "value": "approximately 50%"}]}, {"molecule": "GKAE[pS]VA[pS]LT[pS]QC[pS]YA", "note": "[human PER2 4pFASP peptide]", "values": [{"measurement": "binding result", "setting": "[1]", "value": "binds"}]}]}
